# Data: ChEMBL document CHEMBL1201862, “PubChem BioAssay data set” (2004)
#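 Five compound concentrations were applied to cells in 96-well plates for 48 hours; endpoints were derived by simple linear interpolation of the resulting dose-response curve. GI50 is the concentration that inhibits growth by half.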 Calls of active or inactive are those of the source. Cut-off read from the data, not from the text of the source: active = GI50 up to about 1.1 µM and inactive = higher.
# Assays:
# Assay in all cases: NCI-60 cell line screen, 48 h
# [1] = system: MDA-MB-435
# [2] = system: NCI-H23
# [3] = system: OVCAR-4
# [4] = system: UACC-257
# [5] = system: A549
# [6] = system: RPMI-8226
# [7] = system: NCI-H522
# [8] = system: RXF 393
# [9] = system: SN12C
# [10] = system: SK-MEL-2
# [11] = system: OVCAR-8
# [12] = system: COLO 205
# [13] = system: CCRF-CEM
# [14] = system: A498
# [15] = system: NCI-H226
# [16] = system: OVCAR-3
# [17] = system: SF-539
# [18] = system: HL-60
# [19] = system: LOX IMVI
# [20] = system: SW-620
Structure (SMILES),GI50 [1],GI50 [2],GI50 [3],GI50 [4],GI50 [5],GI50 [6],GI50 [7],GI50 [8],GI50 [9],GI50 [10],GI50 [11],GI50 [12],GI50 [13],GI50 [14],GI50 [15],GI50 [16],GI50 [17],GI50 [18],GI50 [19],GI50 [20]
CCCNC(=O)CCC(C)[C@H]1CCC2C3C(C[C@H](OC(C)=O)[C@@]21C)[C@@]1(C)CCC2(C[C@H]1C[C@H]3OC(C)=O)OOC1(CCC(C)CC1)OO2 (some centres undefined),18.9 µM (inactive),4.88 µM (inactive),15.8 µM (inactive),23.2 µM (inactive),2.17 µM (inactive),3.65 µM (inactive),13 µM (inactive),50 µM (inactive),43.6 µM (inactive),19.5 µM (inactive),19.5 µM (inactive),14.8 µM (inactive),0.0376 µM (active),22.2 µM (inactive),55.3 µM (inactive),4.78 µM (inactive),16.7 µM (inactive),13.1 µM (inactive),,
O=[N+]([O-])c1ccc2nc3ccc([N+](=O)[O-])cn3c2c1,> 100 µM (inactive),> 100 µM (inactive),29.1 µM (inactive),> 100 µM (inactive),39.1 µM (inactive),,23.7 µM (inactive),48.9 µM (inactive),42.4 µM (inactive),> 100 µM (inactive),39 µM (inactive),> 100 µM (inactive),> 100 µM (inactive),20.7 µM (inactive),> 100 µM (inactive),,52.6 µM (inactive),> 100 µM (inactive),85.1 µM (inactive),> 100 µM (inactive)
Cc1cc(S(=O)(=O)N/C(=C(\C#N)C(=O)c2ccc(Cl)cc2)[n+]2ccc(N(C)C)cc2)c([S-])cc1Cl,> 100 µM (inactive),,40.9 µM (inactive),< 0.01 µM (active),37.6 µM (inactive),45.2 µM (inactive),28.9 µM (inactive),> 100 µM (inactive),> 100 µM (inactive),4.84 µM (inactive),> 100 µM (inactive),> 100 µM (inactive),64 µM (inactive),12.3 µM (inactive),> 100 µM (inactive),45.1 µM (inactive),67.3 µM (inactive),> 100 µM (inactive),,
COc1ccc2c(c1)C1=NCCN(C)c3ccc([N+](=O)[O-])c(c31)N2,0.748 µM (active),0.891 µM (active),0.685 µM (active),2.54 µM (inactive),0.525 µM (active),,0.635 µM (active),0.277 µM (active),0.796 µM (active),,0.9 µM (active),0.533 µM (active),5.73 µM (inactive),1.61 µM (inactive),0.502 µM (active),1.36 µM (inactive),0.423 µM (active),3.16 µM (inactive),0.431 µM (active),0.415 µM (active)
Cc1[nH]c2ccccc2c1/C=N/c1ccc(Oc2ccccc2)cc1,17.2 µM (inactive),16 µM (inactive),14.9 µM (inactive),17.4 µM (inactive),17.1 µM (inactive),10.4 µM (inactive),14.1 µM (inactive),16.8 µM (inactive),16.6 µM (inactive),18.4 µM (inactive),18.3 µM (inactive),15.9 µM (inactive),7.05 µM (inactive),18.3 µM (inactive),,14.2 µM (inactive),18.1 µM (inactive),12.1 µM (inactive),15.5 µM (inactive),18 µM (inactive)
CC1=NN(C(=O)c2ccncc2)C(=O)C1,> 100 µM (inactive),> 100 µM (inactive),> 100 µM (inactive),> 100 µM (inactive),> 100 µM (inactive),,> 100 µM (inactive),> 100 µM (inactive),29.2 µM (inactive),> 100 µM (inactive),> 100 µM (inactive),> 100 µM (inactive),> 100 µM (inactive),> 100 µM (inactive),> 100 µM (inactive),> 100 µM (inactive),> 100 µM (inactive),> 100 µM (inactive),> 100 µM (inactive),> 100 µM (inactive)
